We go through 1 compound from ChEMBL document CHEMBL1155140, “Differentially expressed proteins in derivatives of Candida albicans displaying a stable histatin 3-resistant phenotype” (2007).

Experiment [1] concerns Candida albicans. Nature of the experiment: Antifungal activity against histatin-resistant Candida albicans CAHR1 at 0.2 mg/mL measured after storage at -80 degC for 1 year. Type of experiment: functional.
Experiment [2] has as its system Candida albicans. Kind of experiment: Antifungal activity against histatin-resistant Candida albicans CAHR4 at 0.2 mg/mL measured after storage at -80 degC for 1 year. Type of experiment: functional.
For experiment [3], the system named is Candida albicans. Kind of experiment: Antifungal activity against histatin-susceptible Candida albicans CA132A at 0.2 mg/mL. Type of experiment: functional.
Experiment [4] deals with Candida albicans. Kind of experiment: Antifungal activity against histatin-resistant Candida albicans CAHR04A at 0.2 mg/mL. Type of experiment: functional.
Experiment [5] deals with Candida albicans. Kind of experiment: Antifungal activity against histatin-resistant Candida albicans CAHR04B at 0.2 mg/mL. Type of experiment: functional.
The subject of experiment [6] is Candida albicans. Kind of experiment: Antifungal activity against histatin-resistant Candida albicans CAHR04U at 0.2 mg/mL. Type of experiment: functional.
In experiment [7] the test system is Candida albicans. Kind of experiment: Reduction of TRK1 gene expression in histatin-resistant Candida albicans CAHR04A. Type of experiment: functional.
The test system of experiment [8] is Candida albicans. Kind of experiment: Reduction of TRK1 gene expression in histatin-resistant Candida albicans CAHR04B. Type of experiment: functional.
The test system of experiment [9] is Candida albicans. Kind of experiment: Reduction of ATP release in histatin-resistant Candida albicans CAHR04A at 0.2 mg/mL after 45 mins.
The subject of experiment [10] is Candida albicans. Kind of experiment: Reduction of ATP release in histatin-resistant Candida albicans CAHR04B at 0.2 mg/mL after 45 mins.
For experiment [11], the system named is Candida albicans. Nature of the experiment: Reduction of ATP release in histatin-resistant Candida albicans CAHR04U at 0.2 mg/mL after 45 mins.

Active and inactive are the calls of the source. The calls are words filed in the database; no cut-off is given here.

With `CC(C)C[C@H](NC(=O)[C@H](Cc1ccc(O)cc1)NC(=O)[C@H](CC(N)=O)NC(=O)[C@H](CO)NC(=O)[C@H](CCCNC(=N)N)NC(=O)[C@H](Cc1ccc(O)cc1)NC(=O)CNC(=O)[C@H](CCCNC(=N)N)NC(=O)[C@H](Cc1cnc[nH]1)NC(=O)[C@H](CO)NC(=O)[C@H](Cc1cnc[nH]1)NC(=O)[C@H](Cc1cnc[nH]1)NC(=O)[C@H](CCCCN)NC(=O)[C@H](CCC(=O)O)NC(=O)[C@H](Cc1cnc[nH]1)NC(=O)[C@H](Cc1ccccc1)NC(=O)[C@H](CCCCN)NC(=O)[C@H](CCCNC(=N)N)NC(=O)[C@H](CCCCN)NC(=O)[C@H](Cc1ccc(O)cc1)NC(=O)CNC(=O)[C@H](Cc1cnc[nH]1)NC(=O)[C@H](Cc1cnc[nH]1)NC(=O)[C@H](CCCNC(=N)N)NC(=O)[C@H](CCCCN)NC(=O)[C@H](C)NC(=O)[C@H](Cc1cnc[nH]1)NC(=O)[C@H](CO)NC(=O)[C@@H](N)CC(=O)O)C(=O)N[C@@H](Cc1ccc(O)cc1)C(=O)N[C@@H](CC(=O)O)C(=O)N[C@@H](CC(N)=O)C(=O)O` [Histatin 3], the Activity in experiment [1] came out at 86.4%; in experiment [2], 94.4%; in experiment [3] it was 91.7%; in [4], 17.9%; in [5], 17.9%; in [6], 17.9%. Besides, the result in experiment [7], in experiment [9], in experiment [10] and in [11] was Active. Also, the “fold change (FC)” value was 2 in experiment [7] and 1.6 in experiment [8].
